Measurements published in patent US10815238B2, “Antimicrobial compounds and methods of making and using the same” (BIOVERSYS AG, priority 2013, dated 2020).

Columns and labels:
[1] = system: Eschericia coli (E. coli) strain ATCC25922; test: Standard microdilution assay, MIC against E. coli ATCC25922; format: cell-based; details: Escherichia coli; E. coli strain ATCC25922, standard microdilution assay; cutoff 16 micrograms/mL; read-out: MIC E. Coli
Method in brief: (§1)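 Scoring as + or − used a 16 micrograms/mL cutoff on minimum inhibitory concentrations. These came from CLSI-standard microdilution, quality-controlled with reference strains tested in the same run.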

[2] = system: Staphylococcus aureus (S. aureus) 11540 strain; test: Standard microdilution assay, MIC against S. aureus 11540; format: cell-based; details: S. aureus 11540 strain, standard microdilution assay, cutoff 16 micrograms/mL, read-out: MIC S. aureus
Method in brief: as §1

**Q.** `C[C@H](N)CCCc1cc(Cl)c(F)c(-c2cc3cn(-c4ccc(CN[C@H](CCN)CNc5nccs5)cc4)c(=O)nc3[nH]2)c1` [Compound 490] was tested. Which MIC [1] did it give?
**A.** Its MIC is under 16 mg/L.

**Q.** And the MIC [2]?
**A.** The MIC was under 16 mg/L.

**Q.** How did the MIC [1] turn out when `C[C@H](N)CCCc1cc(Cl)c(F)c(-c2cc3cn(-c4ccc(CN[C@H](CCNC(=N)N)Cn5ccnn5)cc4)c(=O)nc3[nH]2)c1` [Compound 499] was run?
**A.** The MIC was under 16 mg/L.

**Q.** And the MIC [2]?
**A.** The MIC was under 16 mg/L.

**Q.** How did the MIC [1] turn out when `C[C@H](N)CCCc1cc(OC(F)(F)F)c(F)c(-c2cc3cn(-c4ccc([C@H](C)N[C@H](CO)CCNC(=N)N)cc4)c(=O)nc3[nH]2)c1` [Compound 366] was run?
**A.** The MIC was under 16 mg/L.

**Q.** And the MIC [2]?
**A.** The MIC was under 16 mg/L.

**Q.** Which results are given for `COCC[C@H](CCN[C@@H](C)c1ccc(-n2cc3cc(-c4cc(CCC[C@H](C)N)cc(Cl)c4F)[nH]c3nc2=O)cc1)NC(=N)N` [Compound 347]?
**A.** MIC [1]: < 16 mg/L; MIC [2]: < 16 mg/L

**Q.** `C[C@H](N)CCCc1cc(Cl)c(F)c(-c2cc3cn(-c4ccc([C@H](C)NCC[C@H](N)CNC(=O)CN)cc4)c(=O)nc3[nH]2)c1` [Compound 424] was tested. Which MIC [1] did it give?
**A.** Its MIC is under 16 mg/L.

**Q.** And the MIC [2]?
**A.** Its MIC is under 16 mg/L.

**Q.** How did the MIC [1] turn out when `N=C(N)NCC[C@H](CO)NCc1ccc(-n2cc3cc(-c4cc(CCC[C@@H](N)CO)cc(Cl)c4F)[nH]c3nc2=O)cc1` [Compound 377] was run?
**A.** The MIC was under 16 mg/L.

**Q.** And the MIC [2]?
**A.** The MIC was under 16 mg/L.

**Q.** `CC[C@H](N)CCCc1cc(Cl)c(F)c(-c2cc3cn(-c4ccc([C@H](C)NCC[C@H](CN)NC(=N)N)cc4)c(=O)nc3[nH]2)c1` [Compound 414] was tested. Which MIC [1] did it give?
**A.** The MIC was under 16 mg/L.

**Q.** And the MIC [2]?
**A.** Its MIC is under 16 mg/L.

**Q.** `C[C@H](N)CCCc1cc(Cl)c(F)c(-c2cc3cn(-c4ccc(C(=N)NC5CC5)cc4)c(=O)nc3[nH]2)c1` [Compound 503] was tested. Which MIC [1] did it give?
**A.** Its MIC is under 16 mg/L.

**Q.** What about the MIC [2] of the same molecule?
**A.** The MIC was under 16 mg/L.

**Q.** What does the source list for `C[C@H](N)CCCc1cc(Cl)c(F)c(-c2cc3cn(-c4ccc(CN[C@@H](CN)CCNC(=N)N)cc4)c(=O)nc3[nH]2)c1` [Compound 379]?
**A.** MIC [1]: < 16 mg/L; MIC [2]: < 16 mg/L

**Q.** With `CC(=N)NCC[C@@H]1CCC[C@@H](c2ccc(-n3cc4cc(-c5cc(CCC[C@H](C)N)cc(Cl)c5F)[nH]c4nc3=O)cc2)N1` [Compound 516] as the molecule, how does the MIC [1] read?
**A.** Its MIC is under 16 mg/L.

**Q.** What about the MIC [2] of the same molecule?
**A.** The MIC was under 16 mg/L.

**Q.** For `C[C@H](N)CCCc1cc(Cl)c(F)c(-c2cc3cn(-c4ccc(C(=O)NCCCNC(=N)N)cc4)c(=O)nc3[nH]2)c1` [Compound 459], which MIC [1] is on record?
**A.** The MIC was under 16 mg/L.

**Q.** And the MIC [2]?
**A.** Its MIC is under 16 mg/L.

**Q.** `C[C@H](N)CCCc1cc(Cl)c(F)c(-c2cc3cn(-c4ccc(C(=N)NCCCN)cc4)c(=O)nc3[nH]2)c1` [Compound 460] was tested. Which MIC [1] did it give?
**A.** Its MIC is under 16 mg/L.

**Q.** And the MIC [2]?
**A.** Its MIC is under 16 mg/L.

**Q.** With `C[C@H](N)CCCc1cc(Cl)c(F)c(-c2cc3cn(-c4ccc(CN[C@@H](C)C[C@H](CCO)NC(=N)N)cc4)c(=O)nc3[nH]2)c1` [Compound 360] as the molecule, how does the MIC [1] read?
**A.** Its MIC is under 16 mg/L.

**Q.** What about the MIC [2] of the same molecule?
**A.** The MIC was under 16 mg/L.

**Q.** Which MIC [1] does the source give for `C[C@H](N)CCCc1cc(OC(F)(F)F)c(F)c(-c2cc3cn(-c4ccc([C@H]5CC[C@H](CCNC(=N)N)N5)cc4)c(=O)nc3[nH]2)c1` [Compound 352] here?
**A.** The MIC was under 16 mg/L.

**Q.** And the MIC [2]?
**A.** The MIC was under 16 mg/L.

**Q.** `C[C@H](N)CCCc1cc(OC(F)(F)F)c(F)c(-c2cc3cn(-c4ccc(CN[C@H](C)C[C@@H](CN)NC(=N)N)cc4)c(=O)nc3[nH]2)c1` [Compound 402] was tested. Which MIC [1] did it give?
**A.** Its MIC is under 16 mg/L.

**Q.** What about the MIC [2] of the same molecule?
**A.** Its MIC is under 16 mg/L.

**Q.** With `N=C(N)NCC[C@@H]1CCC[C@@H](c2ccc(-n3cc4cc(-c5ccc(S(=O)(=O)NC6CCNCC6)cc5)[nH]c4nc3=O)cc2)N1` [Compound 492] as the molecule, how does the MIC [1] read?
**A.** Its MIC is under 16 mg/L.

**Q.** And the MIC [2]?
**A.** Its MIC is under 16 mg/L.

**Q.** What does the source list for `C[C@H](N)CCCc1cc(Cl)c(F)c(-c2cc3cn(-c4ccc([C@@H]5CCC[C@H]6CCN=CN65)cc4)c(=O)nc3[nH]2)c1` [Compound 567]?
**A.** MIC [1]: > 16 mg/L; MIC [2]: < 16 mg/L

**Q.** `C=C[C@H](C[C@H](C)NCc1ccc(-n2cc3cc(-c4cc(CCC[C@H](C)N)cc(OC(F)(F)F)c4F)[nH]c3nc2=O)cc1)NC(=N)N` [Compound 339] was tested. Which MIC [1] did it give?
**A.** The MIC was under 16 mg/L.

**Q.** And the MIC [2]?
**A.** The MIC was under 16 mg/L.

**Q.** How did the MIC [1] turn out when `CCOP(=O)(OCC)OC[C@H](N)CCCc1cc(Cl)c(F)c(-c2cc3cn(-c4ccc([C@H](C)NCCCNC(=N)N)cc4)c(=O)nc3[nH]2)c1` [Compound 467] was run?
**A.** The MIC was under 16 mg/L.

**Q.** What about the MIC [2] of the same molecule?
**A.** The MIC was under 16 mg/L.

**Q.** Which MIC [1] does the source give for `C[C@H](N)CCCc1cc(Cl)c(F)c(-c2cc3cn(-c4ccc([C@@H]5CCC[C@@H](CCNC(=N)N)N5C)cc4)c(=O)nc3[nH]2)c1` [Compound 527] here?
**A.** Its MIC is under 16 mg/L.

**Q.** And the MIC [2]?
**A.** Its MIC is under 16 mg/L.

**Q.** What does the source list for `C[C@H](N)CCCc1cc(Cl)c(F)c(-c2cc3cn(-c4ccc([C@H](C)NCC[C@H](CN5CCOCC5)NC(=N)N)cc4)c(=O)nc3[nH]2)c1` [Compound 334]?
**A.** MIC [1]: < 16 mg/L; MIC [2]: < 16 mg/L

**Q.** With `C[C@H](N)CCCc1cc(Cl)c(F)c(-c2cc3cn(-c4ccc(CN[C@H](CCNC(=N)N)CNc5ncc[nH]5)cc4)c(=O)nc3[nH]2)c1` [Compound 536] as the molecule, how does the MIC [1] read?
**A.** Its MIC is under 16 mg/L.

**Q.** And the MIC [2]?
**A.** Its MIC is under 16 mg/L.

**Q.** How did the MIC [1] turn out when `C[C@H](N)CCCc1cc(Cl)c(F)c(-c2cc3cn(-c4ccc([C@@H]5CCC[C@@H](CCn6ccnn6)N5)cc4)c(=O)nc3[nH]2)c1` [Compound 478] was run?
**A.** The MIC was over 16 mg/L.

**Q.** What about the MIC [2] of the same molecule?
**A.** Its MIC is over 16 mg/L.

**Q.** Which results are given for `C[C@H](N)CCCc1cc(OC(F)(F)F)c(F)c(-c2cc3cn(-c4ccc([C@H](C)N[C@@H](CCNC(=N)N)C(=O)O)cc4)c(=O)nc3[nH]2)c1` [Compound 364]?
**A.** MIC [1]: > 16 mg/L; MIC [2]: > 16 mg/L

**Q.** Which results are given for `C[C@H](N)CCCc1cc(Cl)c(F)c(-c2cc3cn(-c4ccc(CN[C@H](C)C[C@H](CN)NC(=N)N)cc4)c(=O)nc3[nH]2)c1` [Compound 397]?
**A.** MIC [1]: < 16 mg/L; MIC [2]: < 16 mg/L

**Q.** For `C[C@H](N)CCCc1cc(OC(F)(F)F)c(F)c(-c2cc3cn(-c4ccc([C@@H]5COC[C@H](CCNC(=N)N)N5)cc4)c(=O)nc3[nH]2)c1` [Compound 357], which MIC [1] is on record?
**A.** The MIC was under 16 mg/L.

**Q.** What about the MIC [2] of the same molecule?
**A.** Its MIC is under 16 mg/L.

**Q.** How did the MIC [1] turn out when `C[C@H](N)CCCc1cc(OC(F)(F)F)c(F)c(-c2cc3cn(-c4ccc(C5(CCNC(=N)N)CNC5)cc4)c(=O)nc3[nH]2)c1` [Compound 435] was run?
**A.** The MIC was under 16 mg/L.

**Q.** What about the MIC [2] of the same molecule?
**A.** The MIC was under 16 mg/L.

**Q.** With `C[C@H](N)CCCc1cc(Cl)c(F)c(-c2cc3cn(-c4ccc([C@H]5CCO[C@H](CNC(=N)N)C5)cc4)c(=O)nc3[nH]2)c1` [Compound 561] as the molecule, how does the MIC [1] read?
**A.** The MIC was under 16 mg/L.

**Q.** What about the MIC [2] of the same molecule?
**A.** The MIC was under 16 mg/L.

**Q.** What does the source list for `C[C@H](N)CCCc1cc(Cl)c(F)c(-c2cc3cn(-c4ccc([C@@H]5CCC[C@@H](CNCC6CCOCC6)N5)cc4)c(=O)nc3[nH]2)c1` [Compound 550]?
**A.** MIC [1]: > 16 mg/L; MIC [2]: > 16 mg/L

**Q.** For `C[C@H](N)CCCc1cc(OC(F)(F)F)c(F)c(-c2cc3cn(-c4ccc([C@@H]5COC[C@@H](CO)N5)cc4)c(=O)nc3[nH]2)c1` [Compound 453], which MIC [1] is on record?
**A.** The MIC was over 16 mg/L.

**Q.** What about the MIC [2] of the same molecule?
**A.** The MIC was over 16 mg/L.

**Q.** Which MIC [1] does the source give for `C[C@H](N)CCCc1cc(Cl)c(F)c(-c2cc3cn(-c4ccc([C@@H]5CCC[C@@H](CCNc6ncc[nH]6)N5)cc4)c(=O)nc3[nH]2)c1` [Compound 552] here?
**A.** The MIC was under 16 mg/L.

**Q.** And the MIC [2]?
**A.** The MIC was under 16 mg/L.

**Q.** For `C[C@H](N)CCCc1cc(Cl)c(F)c(-c2cc3cn(-c4ccc([C@@H]5CCC[C@@H](CCC(=O)O)N5)cc4)c(=O)nc3[nH]2)c1` [Compound 514], which MIC [1] is on record?
**A.** Its MIC is over 16 mg/L.

**Q.** And the MIC [2]?
**A.** The MIC was over 16 mg/L.

**Q.** What does the source list for `C[C@H](N)CCCc1cc(Cl)c(F)c(-c2cc3cn(-c4ccc([C@H](C)NCC[C@@H](/C=C/Cl)NC(=N)N)cc4)c(=O)nc3[nH]2)c1` [Compound 389]?
**A.** MIC [1]: < 16 mg/L; MIC [2]: < 16 mg/L

**Q.** How did the MIC [1] turn out when `C[C@H](N)CCCc1cc(Cl)c(F)c(-c2cc3cn(-c4ccc([C@@H]5CCC[C@@H](Cc6nn[nH]n6)N5)cc4)c(=O)nc3[nH]2)c1` [Compound 509] was run?
**A.** The MIC was over 16 mg/L.

**Q.** What about the MIC [2] of the same molecule?
**A.** The MIC was over 16 mg/L.

**Q.** What does the source list for `C[C@H](N)CCCc1cc(OC(F)(F)F)c(F)c(-c2cc3cn(-c4ccc([C@H](C)NCC[C@@H](Cn5cc(CN)nn5)NC(=N)N)cc4)c(=O)nc3[nH]2)c1` [Compound 327]?
**A.** MIC [1]: < 16 mg/L; MIC [2]: < 16 mg/L
